Experimental data as given in US20110251135A1, “INHIBITORS OF PERITONEAL SEEDING OF CANCER CELLS” (University of Utah Research Foundation, priority 2008, published 2011).

Experiments:
293-COX-2 cells = test: Apoptosis of 293-COX-2 cells with or without ponasterone induction of COX-2; type: cell-based; conditions: 8 hours of exposure
Description: The transiently suspended cells were lysed and allowed to bind to DNA oligonucleotides, containing the NF-κB consensus binding site, that were immobilized to 96-well plates. NF-κB protein bound to the oligonucleotides was detected by an antibody to the p65 subunit that only recognized p65 that is bound to DNA. The positive control was HeLa cells that were stimulated with TNFα. A control was performed using excess free NF-κB oligonucleotides (Competitor). […] NF-κB binding activity was determined by the TransAM assay as in FIG. 5A. […] The data shown represent typical results of three separate experiments. […] An immunoblot for COX-2 was performed.
DLD-1, HCT-116, and HT-29 colon cancer cell lines were obtained from the ATCC collection and were cultured in Dulbecco's Modification of Eagle's Medium (DMEM) supplemented with 10% fetal bovine serum, glutamine, penicillin, and streptomycin. […]
Single cell suspensions were plated at 100,000 cells per well in 24-well plates in media containing DMSO, BAY 11-7082, BAY 11-7085, or MG-132 for 8-24 hours in an incubator. […] 400 μL of binding buffer was added to each tube and the cells were analyzed by flow cytometry immediately. The percent of apoptosis was determined as the percent of annexin V-positive, propidium iodide-negative cells of the total cells counted. […]

TRAF-1 and TRAF-2 = test: Immunoblot of anti-apoptotic proteins in HT-29 cells; type: cell-based, human; conditions: 20 μM for 8 hours
Description: (§1) The data points represent the means of triplicate experiments and the error bars the standard errors of the means. […] The percent of apoptotic cells was then determined by the annexin V assay. […] The results shown are typical of two separate experiments. […] Immunoblots were performed for c-IAP-2, TRAF-1, TRAF-2, and FLIP. All lanes contain equal total protein.
(§2) The cells were washed twice in ice cold PBS and then lysed in 4° C. lysis buffer (50 mM HEPES, 150 mM NaCl, 1.5 mM MgCl2, 1 mM EGTA, 100 mM NaF, 10 mM Na2PO4, 1 mM Na3VO4, 10% glycerol, 1% TRITON™ X-100, and 1 μg/mL each of aprotinin, leupeptin, chymostatin, pepstatin) and clarified at 12,000 rpm at 4° C. for 15 minutes. The lysates were normalized for total protein concentration. Aliquots of the lysates were then mixed 1:1 in sample buffer (125 mM Tris-HCl (pH 6.8), 20% glycerol, 4% sodium dodecyl sulfate, 2% β-mercaptoethanol, 10 μg/mL bromophenol blue) and boiled for 3 minutes. The samples were loaded onto SDS-PAGE gels (7.5 or 10% acrylamide). […]
(§3) For immunodetection, the blocked blots were probed with primary antibody for 2 hours at 4° C. on a rocker. […] Alkaline phosphatase was detected by a colorimetric reaction using a BCIP (5-bromo-4-chloro-3-indolyl phosphate)/NBT (nitroblue tetrazolium) kit (Zymed).

c-IAP-1 = test: as above; type: cell-based, human; conditions: transiently suspended or adherent HT-29; 20 μM for 8 hours
Description: as §1, §2, §3

[1] = athymic mice; BAY 11-7085 5 mg/kg IP, 4 doses total

In the case of `CC(C)(C)c1ccc(S(=O)(=O)/C=C/C#N)cc1` [BAY 11-7085, (2E)-3-[4-(tertiarybutylphenyl)sulfonyl]-2-propenenitrile], the apoptosis (293-COX-2 cells; ponasterone-induced 293-COX-2 cells (1 μg/mL, 48 hours)) is reported as “marked increase in BAY 11-7085-induced apoptosis”, the apoptosis (293-COX-2 cells; uninduced 293-COX-2 cells) is reported as “no increase in apoptosis” and the “TRAF-1 and TRAF-2 protein expression” value (TRAF-1 and TRAF-2) is reported as “decrease in the protein expression of both TRAF-1 and TRAF-2 proteins”. The c-IAP-1 protein expression (c-IAP-1) was “No decrease in c-IAP-1 protein expression” and the “deaths / overt signs of toxicity” value [1] was “None of the mice died or showed overt signs of toxicity”.
